Assay results published in ChEMBL document CHEMBL1157633, “Prediction and evaluation of protein farnesyltransferase inhibition by commercial drugs” (J Med Chem, 2010).
Activity calls are given as the source filed them. The rule behind the calls is not given here.

Key:
[1] = Inhibition of protein farnesyltransferase by continuous fluorescence assay
[2] = Blockade of protein farnesyltransferase by aggregate-based inhibition assay
MDCK [3] = assay: Cytotoxicity against MDCK cells at >10 uM; format: cell-based, Canis lupus familiaris; details: dog
MDCK [4] = assay: Inhibition of protein farnesyltransferase-mediated farnesylation of GFP-tagged H-Ras protein overexpressed in MDCK cells assessed as inhibition of protein localization into golgi and plasma membrane at 10 uM after 48 hrs by Hoechst 34580 staining-based confocal microscopy; format: cell-based
MDCK [5] = assay: Inhibition of protein farnesyltransferase-mediated farnesylation of GFP-tagged H-Ras protein overexpressed in MDCK cells assessed as inhibition of protein localization into golgi and plasma membrane at 25 uM after 24 hrs by Hoechst 34580 staining-based confocal microscopy; format: cell-based
[6] = Blockade of protein farnesyltransferase at 100 uM by aggregate-based inhibition assay

| SMILES | IC50 [1] [µM] | Activity [2] | also measured |
| --- | --- | --- | --- |
| CC(C)C[C@H](NC(=O)[C@@H](O)[C@H](N)Cc1ccccc1)C(=O)O [UBENIMEX] | > 200 | – | – |
| Clc1ccc(COC(Cn2ccnc2)c2ccc(Cl)cc2Cl)cc1 (stereo not given) | – | Active | – |
| O=C1OC(c2ccc(O)cc2)(c2ccc(O)cc2)c2c(I)c(I)c(I)c(I)c21 | – | inactive | – |
| Cc1cncc(CN2CCC(=C3c4ccc(Cl)cc4CCc4cccnc43)CC2)c1 [RUPATADINE] | 76 | – | – |
| Clc1ccc(COC(Cn2ccnc2)c2ccc(Cl)cc2Cl)c(Cl)c1 (stereo not given) [MICONAZOLE] | – | Active | Activity (MDCK [3]): Toxic; Activity (MDCK [4]): Active |
| CCOC(=O)N1CCC(=C2c3ccc(Cl)cc3CCc3cccnc32)CC1 [LORATADINE] | 13.3 | – | Activity (MDCK [5]): inactive |
| Clc1ccccc1C(c1ccccc1)(c1ccccc1)n1ccnc1 | – | – | Activity [6]: inactive |
